# Reference: BigSolDB 2.1
smiles,measurement,setting,value
CCO.C[C@H]1c2cccc(O)c2C(O)=C2C(=O)[C@]3(O)C(O)=C(C(N)=O)C(=O)[C@@H](N(C)C)[C@@H]3[C@@H](O)[C@@H]21.C[C@H]1c2cccc(O)c2C(O)=C2C(=O)[C@]3(O)C(O)=C(C(N)=O)C(=O)[C@@H](N(C)C)[C@@H]3[C@@H](O)[C@@H]21.Cl.Cl.O,solubility (mole fraction),"in ethanol, 278.15 K",0.00199
same,solubility (mole fraction),"in ethanol, 283.15 K",0.00222
same,solubility (mole fraction),"in ethanol, 288.15 K",0.00248
same,solubility (mole fraction),"in ethanol, 293.15 K",0.00278
same,solubility (mole fraction),"in ethanol, 298.15 K",0.00313
same,solubility (mole fraction),"in ethanol, 302.85 K",0.00327
same,solubility (mole fraction),"in ethanol, 307.25 K",0.00364
same,solubility (mole fraction),"in ethanol, 312.95 K",0.00409
same,solubility (mole fraction),"in ethanol, 318.15 K",0.0047
same,solubility (mole fraction),"in ethanol, 323.05 K",0.00522
same,solubility (mole fraction),"in methanol, 278.15 K",0.0138
same,solubility (mole fraction),"in methanol, 283.15 K",0.015
same,solubility (mole fraction),"in methanol, 288.15 K",0.016
same,solubility (mole fraction),"in methanol, 293.15 K",0.0174
same,solubility (mole fraction),"in methanol, 298.15 K",0.0198
same,solubility (mole fraction),"in methanol, 302.85 K",0.0251
same,solubility (mole fraction),"in methanol, 307.25 K",0.0292
same,solubility (mole fraction),"in methanol, 312.95 K",0.0332
same,solubility (mole fraction),"in methanol, 318.15 K",0.0402
same,solubility (mole fraction),"in methanol, 323.05 K",0.044
same,solubility (mole fraction),"in n-propanol, 278.15 K",0.000862
same,solubility (mole fraction),"in n-propanol, 283.15 K",0.00101
same,solubility (mole fraction),"in n-propanol, 288.15 K",0.00111
same,solubility (mole fraction),"in n-propanol, 293.15 K",0.00133
same,solubility (mole fraction),"in n-propanol, 298.15 K",0.00151
same,solubility (mole fraction),"in n-propanol, 303.15 K",0.00174
same,solubility (mole fraction),"in n-propanol, 309.75 K",0.00222
same,solubility (mole fraction),"in n-propanol, 316.65 K",0.00273
same,solubility (mole fraction),"in n-propanol, 322.55 K",0.00351
same,solubility (mole fraction),"in water, 277.55 K",0.00128
same,solubility (mole fraction),"in water, 283.05 K",0.00132
same,solubility (mole fraction),"in water, 287.85 K",0.0014
same,solubility (mole fraction),"in water, 292.95 K",0.00164
same,solubility (mole fraction),"in water, 299.15 K",0.00214
same,solubility (mole fraction),"in water, 302.35 K",0.00254
same,solubility (mole fraction),"in water, 307.45 K",0.00306
same,solubility (mole fraction),"in water, 313.25 K",0.00405
same,solubility (mole fraction),"in water, 317.85 K",0.00534
same,solubility (mole fraction),"in water, 323.05 K",0.00647
